ED50 data for 2 molecules are collected here from patent US4879278A, “Isolation and structural elucidation of the cytostatic linear depsipeptide dolastatin 15” (priority 1989, dated 1989).

In brackets after ≈: the same amount, converted by molar mass. Like-named read-outs stand apart in the source and are kept apart here. Non-standard residues stand in square brackets, D forms with d. Residues, ends and D or L forms follow the SMILES beside them. *: point of attachment. X3 = COC1=CC(=O)N(C(=O)[C@@H](O*)C(C)C)[C@H]1Cc1ccccc1; NMe2Val = CC(C)[C@@H](C(=O)*)N(C)C; NMeV = CN[C@H](C(=O)O)C(C)C

In test [1] the test system is P388 lymphocytic leukemia cell line. Briefly: P388 in vitro cell line growth inhibition. The class given is cell-based, murine. The method, then: Because of the dolastatin's potency, the sea hare seems to require only vanishingly small quantities (about 1 mg each from 100 kg), making isolation and structural elucidation of these peptides exceptionally challenging. Later another substance was isolated and determined to be a unique linear pentapeptide and was denominated "dolastatin 10". […] The PS System is an excellent predictor of activity against various types of human neoplasms (See: Vendetti et al, Lloydia, 30, 332 et seq (1967) and references cited therein.)

Test [2] has the same test system. Conditions: PS leukemia; cited from earlier work.

The molecule `COC1=CC(=O)N(C(=O)[C@@H](OC(=O)[C@@H]2CCCN2C(=O)[C@@H]2CCCN2C(=O)[C@H](C(C)C)N(C)C(=O)[C@@H](NC(=O)[C@H](C(C)C)N(C)C)C(C)C)C(C)C)[C@H]1Cc1ccccc1` [Dolastatin 15] (NMe2Val-V[NMeV]PP-X3) came in with an ED50 in test [1] of 0.0024 µg/mL (≈ 0.00287 µM).
For the molecule `CC[C@H](C)[C@@H]([C@@H](CC(=O)N1CCC[C@H]1[C@H](OC)[C@@H](C)C(=O)N[C@@H](Cc1ccccc1)c1nccs1)OC)N(C)C(=O)[C@@H](NC(=O)[C@H](C(C)C)N(C)C)C(C)C` [dolastatin 10], the ED50 in test [2] was 46 µg/mL (≈ 58.6 µM).
